Data: patent US20210255193A1, “LYSINE REACTIVE PROBES AND USES THEREOF” (The Scripps Research Institute, priority 2017, published 2021)

Key:
Assay in all cases: competitive isoTOP-ABPP
Format in all cases: binding
[1] = target: T1, ISOC2 Isochorismatase domain-containing protein 2, mitochondrial (Homo sapiens, UniProt Q96AB3); design: key to isoTOP-ABPP reactivity ratio at lysine Q96AB3_K178: R = MS1 peak area ratio, DMSO (heavy) / compound-treated (light); capped at 20; details: 50 uM, in vitro
T1 construct: isoTOP-ABPP experiments performed in cell lysates (in vitro); endogenous in cells; host or cells: soluble proteome of human cancer cell lines (MDA-MB-231; Ramos and Jurkat also prepared)
T1 sequence (Q96AB3 1-205): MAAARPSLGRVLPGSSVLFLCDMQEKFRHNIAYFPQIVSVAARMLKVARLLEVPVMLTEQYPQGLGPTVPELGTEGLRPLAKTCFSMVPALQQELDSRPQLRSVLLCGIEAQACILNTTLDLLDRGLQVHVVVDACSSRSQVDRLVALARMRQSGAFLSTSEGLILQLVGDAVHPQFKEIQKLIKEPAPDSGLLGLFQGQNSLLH
Procedure: (§1) In vitro covalent fragment treatment for isoTOP-ABPP. All compounds were made up as solutions in DMSO (100×) and were used at a final concentration of 50 μM for activated esters and 100 μM for guanidinylating agents. For each profiling sample, 0.5 ml of lysate was treated with 5 μl of the 100× compound stock solution or 5 μl of DMSO. Samples were treated with activated esters for
(§2) STP-alkyne labeling and click chemistry. For concentration-dependent reactivity measurements by isoTOP-ABPP, 0.5 ml proteome aliquots were treated at ambient temperature with 1 mM STP-alkyne 1 (5 μl of 100 mM stock in DMSO) and 0.1 mM STP alkyne 1 (5 μl of 10 mM stock in DMSO), respectively. For competitive isoTOP-ABPP, after in vitro fragment treatment (detailed above), the samples were labeled for 1 h at ambient temperature with 0.1 mM STP-alkyne 1 (5 μl of 10 mM stock in DMSO). Samples were conjugated by copper-mediated azide-alkyne cycloaddition (CuAAC) to either the light (1 mM STP-alkyne or fragment treated) or heavy (0.1 mM STP-alkyne or DMSO treated) TEV tags (10 μl of 5 mM stocks in DMSO, final concentration=100 μM) using tris(2-carboxyethyl)phosphine hydrochloride
(§3) R value calculation and processing. The ratios of light and heavy MS1 peaks for each unique peptide were quantified with a CIMAGE software using default parameters (3 MS1 acquisitions per peak and signal to noise threshold set to 2.5). For reactivity measurements by isoTOP-ABPP, the R value was calculated from the ratio of MS1 peak areas, comparing the 1 mM STP alkyne sample (light TEV tag) with the 0.1 mM STP alkyne sample (heavy TEV tag). For competitive isoTOP-ABPP, the R value was calculated from the ratio of MS1 peak areas, comparing the DMSO treated sample (heavy TEV tag) with the compound treated sample (light TEV tag). […] Ratios for unique peptide entries are calculated for each experiment; overlapping peptides with the same modified lysine (for example, different charge states, MudPIT chromatographic steps or tryptic termini) are grouped together and the median ratio is reported as the final ratio (R). The peptide ratios reported by CIMAGE were further filtered to ensure the removal or correction of low-quality ratios in each individual data set. The quality filters applied were the following: removal of half tryptic peptides; for ratios with high standard deviations from the median (90% of the median or above) the lowest ratio was taken instead of the median; removal of peptides with R=20 and only a single MS2 event triggered during the elution of the parent ion; manual annotation of all the peptides with ratios of 20, removing any peptides with low quality elution profiles that remained after the previous curation steps (only done for competitive isoTOP-ABPP).
(§4) Cross-data processing for fragment screening. For compound treated samples, biological replicates of the same condition were averaged, if the standard deviation was below 60% of the mean; otherwise, for lysines with at least one R value <4 for a particular compound, the lowest value of the ratio set was taken. For lysines, where all R values for a particular compound were ≥4, the average was reported. For peptides containing several possible modified lysines, the lysine with the highest number of quantification events was used for analysis and the remaining, redundant peptides were reported as alternative modification sites. Peptides included in the aggregate dataset (those used for further bioinformatics and statistical analyses) were required to have been quantified in 2 experiments for competitive isoTOP-ABPP. Lysines were categorized as liganded, if they had at least one ratio R≥4 (hit fragments). For liganded lysines with R=20 for all liganding events, lysines were required to have been quantified with R=20 in two separate experiments and were further required to have been quantified with R<20 in one additional experiment.

[2] = target: T2, GLOD4 Glyoxalase domain-containing protein 4 (Homo sapiens, UniProt Q9HC38); details: 50 uM, 231 sol, in vitro
T2 construct: endogenous in cells; host or cells: MDA-MB-231 (soluble fraction of lysate)
T2 sequence (Q9HC38 1-313): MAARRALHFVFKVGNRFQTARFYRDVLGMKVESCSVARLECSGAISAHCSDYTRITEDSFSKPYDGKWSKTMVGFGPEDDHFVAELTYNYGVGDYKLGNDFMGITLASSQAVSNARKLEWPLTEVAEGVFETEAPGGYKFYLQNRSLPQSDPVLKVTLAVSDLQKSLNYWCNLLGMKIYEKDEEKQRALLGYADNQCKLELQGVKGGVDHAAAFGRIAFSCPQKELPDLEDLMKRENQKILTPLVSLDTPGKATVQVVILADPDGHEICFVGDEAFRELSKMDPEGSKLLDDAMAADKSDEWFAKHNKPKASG
Procedure: as §1, §2, §3, §4

[3] = target: T3, GSTT2B Glutathione S-transferase theta-2B (Homo sapiens, UniProt P0CG30); details: 50 uM, in vitro
T3 construct: isoTOP-ABPP experiments performed in cell lysates (in vitro); endogenous in cells; host or cells: MDA-MB-231 soluble lysate
T3 sequence (P0CG30 1-244): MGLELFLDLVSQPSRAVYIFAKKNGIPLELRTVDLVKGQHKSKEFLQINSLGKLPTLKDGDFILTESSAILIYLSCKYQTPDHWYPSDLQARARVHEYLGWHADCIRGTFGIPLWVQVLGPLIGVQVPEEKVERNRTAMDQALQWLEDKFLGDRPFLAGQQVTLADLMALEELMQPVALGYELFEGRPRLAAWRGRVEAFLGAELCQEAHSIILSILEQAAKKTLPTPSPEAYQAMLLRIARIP
Procedure: as §1, §2, §3, §4

[4] = target: T4, MRPS24 28S ribosomal protein S24, mitochondrial (Homo sapiens, UniProt Q96EL2); details: 50 uM, in vitro
T4 construct: isoTOP-ABPP experiments performed in cell lysates (in vitro); endogenous in cells; host or cells: soluble proteome of human cancer cell lines (MDA-MB-231; Ramos and Jurkat also prepared)
Procedure: as §1, §2, §3, §4

[5] = target: T5, ERAP1 Endoplasmic reticulum aminopeptidase 1 (Homo sapiens, UniProt Q9NZ08); details: 50 uM, in vitro
T5 construct: endogenous in cells; host or cells: MDA-MB-231 lysate
Procedure: as §1, §2, §3, §4

[6] = target: T6, MAP1LC3B Microtubule-associated proteins 1A/1B light chain (Homo sapiens, UniProt Q9GZQ8); design: key to isoTOP-ABPP reactivity ratio at lysine Q9GZQ8_K51: R = MS1 peak area ratio, DMSO (heavy) / compound-treated (light); details: 50 uM, in vitro; for isoTOP-ABPP reactivity ratio at lysine Q9GZQ8_K51: 231 sol
T6 construct: isoTOP-ABPP experiments performed in cell lysates (in vitro); endogenous in cells; host or cells: soluble proteome of human cancer cell lines (MDA-MB-231; Ramos and Jurkat also prepared)
Procedure: as §1, §2, §3, §4

T5 sequence (Q9NZ08 whole entry): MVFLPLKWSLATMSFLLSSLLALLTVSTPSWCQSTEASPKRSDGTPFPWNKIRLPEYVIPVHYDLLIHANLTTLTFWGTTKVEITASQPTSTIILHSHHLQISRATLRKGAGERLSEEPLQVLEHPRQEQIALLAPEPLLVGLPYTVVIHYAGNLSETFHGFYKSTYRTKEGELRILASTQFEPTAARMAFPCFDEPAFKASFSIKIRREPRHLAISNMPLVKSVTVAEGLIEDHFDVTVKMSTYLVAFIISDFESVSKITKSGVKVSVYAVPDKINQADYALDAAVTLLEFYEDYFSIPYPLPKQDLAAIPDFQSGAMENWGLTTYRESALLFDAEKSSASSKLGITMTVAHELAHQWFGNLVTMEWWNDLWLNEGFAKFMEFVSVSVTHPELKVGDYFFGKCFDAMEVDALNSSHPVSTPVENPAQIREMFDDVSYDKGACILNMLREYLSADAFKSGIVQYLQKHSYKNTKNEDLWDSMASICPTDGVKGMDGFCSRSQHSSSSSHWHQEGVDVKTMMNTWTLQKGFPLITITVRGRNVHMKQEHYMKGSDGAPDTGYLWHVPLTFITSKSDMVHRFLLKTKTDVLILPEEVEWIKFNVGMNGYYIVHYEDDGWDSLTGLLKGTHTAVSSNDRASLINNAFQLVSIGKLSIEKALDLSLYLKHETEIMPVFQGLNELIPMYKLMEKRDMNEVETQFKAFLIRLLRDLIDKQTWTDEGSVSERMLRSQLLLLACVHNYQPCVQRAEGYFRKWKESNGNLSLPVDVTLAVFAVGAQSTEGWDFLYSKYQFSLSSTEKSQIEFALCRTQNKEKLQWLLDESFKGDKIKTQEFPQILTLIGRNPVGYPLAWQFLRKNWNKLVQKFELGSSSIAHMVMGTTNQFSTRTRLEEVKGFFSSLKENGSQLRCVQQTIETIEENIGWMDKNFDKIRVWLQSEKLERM

O=C(Oc1c(F)c(F)c(F)c(F)c1F)c1cc(C(F)(F)F)cc(C(F)(F)F)c1 [fragment 21, Pentafluorophenyl 3,5-bis(trifluoromethyl)benzoate]
R value (DMSO/fragment) for probe 1 labeling ([1]; Q96AB3_K178, 231 sol): 1.0
R value (DMSO/fragment) for probe 1 labeling ([2]; Q9HC38_K305): 0.8
R value (DMSO/fragment) for probe 1 labeling ([3]; P0CG30_K53, 231 sol): 0.9
R value (DMSO/fragment) for probe 1 labeling ([4]; Q96EL2_K94, 231 sol): 0.8
R value (DMSO/fragment) for probe 1 labeling ([5]; Q9NZ08_K685, 231 sol): 1.4

O=C(Oc1c(F)c(F)c(F)c(F)c1F)C1CCN(C(=O)OCc2ccccc2)CC1 [fragment 24, 1-Benzyl 4-(pentafluorophenyl) piperidine-1,4-dicarboxylate]
isoTOP-ABPP reactivity ratio at lysine Q9HC38_K305 [2]: 1.5
isoTOP-ABPP reactivity ratio at lysine P0CG30_K53 ([3]; 231 sol): 1.0
isoTOP-ABPP reactivity ratio at lysine Q96EL2_K94 ([4]; 231 sol): 1.5
isoTOP-ABPP reactivity ratio at lysine Q9NZ08_K685 ([5]; 231 sol): 1.6
isoTOP-ABPP reactivity ratio at lysine Q9GZQ8_K51 [6]: 1.1

O=C(CCc1coc2cc(F)ccc2c1=O)Oc1c(F)c(F)c(F)c(F)c1F [fragment 26, Pentafluorophenyl 3-(7-fluoro-4-oxo-4H-chromen-3-yl)propanoate]
isoTOP-ABPP reactivity ratio at lysine Q9HC38_K305 [2]: 0.8
isoTOP-ABPP reactivity ratio at lysine P0CG30_K53 ([3]; 231 sol): 1.3
isoTOP-ABPP reactivity ratio at lysine Q96EL2_K94 ([4]; 231 sol): 2.7
isoTOP-ABPP reactivity ratio at lysine Q9NZ08_K685 ([5]; 231 sol): 1.2
isoTOP-ABPP reactivity ratio at lysine Q9GZQ8_K51 [6]: 1.2

O=C(Oc1ccc([N+](=O)[O-])cc1[N+](=O)[O-])C(c1ccccc1)c1ccccc1 [fragment 30, 2,4-Dinitrophenyl 2,2-diphenylacetate]
isoTOP-ABPP reactivity ratio at lysine Q96AB3_K178 ([1]; 231 sol): 1.0
isoTOP-ABPP reactivity ratio at lysine Q9HC38_K305 [2]: 0.6
isoTOP-ABPP reactivity ratio at lysine P0CG30_K53 ([3]; 231 sol): 0.6
isoTOP-ABPP reactivity ratio at lysine Q9NZ08_K685 ([5]; 231 sol): 1.2
isoTOP-ABPP reactivity ratio at lysine Q9GZQ8_K51 [6]: 1.2

Cn1cc(CC(=O)Oc2ccc([N+](=O)[O-])cc2[N+](=O)[O-])c2ccccc21 [fragment 32, 2,4-Dinitrophenyl 2-(1-methyl-1H-indol-3-yl)acetate]
isoTOP-ABPP reactivity ratio at lysine Q96AB3_K178 ([1]; 231 sol): 1.1
isoTOP-ABPP reactivity ratio at lysine P0CG30_K53 ([3]; 231 sol): 0.8
isoTOP-ABPP reactivity ratio at lysine Q96EL2_K94 ([4]; 231 sol): 5.1
isoTOP-ABPP reactivity ratio at lysine Q9NZ08_K685 ([5]; 231 sol): 2.8
isoTOP-ABPP reactivity ratio at lysine Q9GZQ8_K51 [6]: 0.9

O=C(CCc1coc2cc(F)ccc2c1=O)Oc1ccc([N+](=O)[O-])cc1[N+](=O)[O-] [fragment 36, 2,4-Dinitrophenyl 3-(7-fluoro-4-oxo-4H-chromen-3-yl)propanoate]
isoTOP-ABPP ratio (R) at liganded lysine Q96AB3_K178 ([1]; sol, 231): 1.7
isoTOP-ABPP ratio (R) at liganded lysine P0CG30_K53 ([3]; sol, 231): 0.5
isoTOP-ABPP ratio (R) at liganded lysine Q96EL2_K94 ([4]; sol, 231): 2.8
isoTOP-ABPP ratio (R) at liganded lysine Q9NZ08_K685 ([5]; sol, 231): 1.1
isoTOP-ABPP ratio (R) at liganded lysine Q9GZQ8_K51 ([6]; sol, 231): 0.8
